Row | SMILES | melting point [°C]
1 | O=c1nc(-c2ccc(-c3ccccc3)cc2)sc2ccccc12 | 170 to 171
2 | CCOC(=O)c1ccc(OCc2nc(-c3ccccc3)oc2C)c(OC)c1 | 103 to 104
3 | O=c1occ(-c2ccccc2)n1-c1ccc(F)cc1 | 145 to 147
4 | CCc1ccc(Nc2c(C(=O)NOCCO)ccc(F)c2F)c(F)c1 | 112
5 | COc1cc2c(CCN)c[nH]c2cc1F | 114 to 117
6 | Cc1cc(=O)oc2c1c(C)nn2CCO | 152 to 153
7 | NC(=O)c1cccc(Oc2ccccc2)c1 | 127 to 128
8 | CC(C)(C)OC(=O)Nc1ccccc1NC(=O)c1ccc(C(=O)Nc2cccc(Nc3nc(-c4cccnc4)cs3)c2)s1 | 198
9 | O=C(OCc1ccccc1)C(C(=O)OCc1ccccc1)n1cccc1C(=O)C(Cl)(Cl)Cl | 74 to 76
10 | Cc1nc2cc(C(=O)NC(C)C)c(NC(=O)c3cc(C(F)(F)F)nn3-c3ncccc3Cl)c(Cl)c2n1C | 248 to 250
11 | CC(C)(C)OC(=O)Nc1ccc(C#Cc2ccccc2)cc1NC(=O)CC(=O)c1cccc([N+](=O)[O-])c1 | 177 to 179
12 | CCN1c2ncc(CC(=O)c3ccncc3)cc2C(=O)N(C)c2ccc(Cl)nc21 | 154
13 | COc1nc(C)nc(NC(=O)NS(=O)(=O)c2cc(Br)cc3c2OS(=O)(=O)C(C)=C3)n1 | 196 to 198
14 | Cc1nnn(Cc2cc(-c3ncco3)ccc2-c2ccccc2S(=O)(=O)Nc2onc(C)c2C)n1 | 168 to 174
15 | Cc1cc2c(Oc3cccc(C(F)(F)F)c3)nc(OCC(F)(F)F)nc2s1 | 124 to 125
16 | CC[C@H]1[C@H](O)CC(=O)N1c1ccc(C#N)c(Cl)c1 | 118 to 120
17 | O=c1[nH]c2ccccc2n1Cc1cccnc1 | 160
18 | COc1cc(Nc2c(C#N)cnc3cc(-c4cc5ccccc5o4)ccc23)c(Cl)cc1Cl | 276 to 277
19 | Clc1ccc(Nc2nnc(Cc3ccncc3)c3ccccc23)cc1Cl | 249 to 250
20 | CCN(CC)CCOc1cccc2c1c1cc(Cl)ccc1n2Cc1ccc(F)cc1 | 99 to 99.5
21 | COc1cc2c(cc1C)C1(CO2)C(=O)N(CC2CCCCO2)c2ccccc21 (stereo not drawn) | 180 to 182
22 | Cc1ccnc(NC(=O)c2ccn3c2CSC3c2cccnc2)c1 (stereo not drawn) | 163
23 | CN(CC(=O)Nc1ccccc1N)C(=O)OC(C)(C)C | 134 to 136
24 | CCOC(=O)Cn1c(=O)[nH]c2ccc(Cl)cc2c1=O | 214 to 215

Row | SMILES | melting point [°C]
25 | Brc1ccc2c(c1)Cc1cc(I)ccc1-2 | 179 to 185
26 | COC(=O)c1ccc(Cn2ncc3ccc(N)cc32)cc1 | 131 to 132
27 | CC(=O)NCc1cccc(Nc2nccc(-c3sc(NCc4ccccc4)nc3C)n2)c1 | 181 to 183
28 | O=C(O)c1ccc(OCc2ccccc2)c(C23CC4CC(CC(C4)C2)C3)c1 | 251 to 253
29 | CCOC(=O)CN1CCN(CCNc2ncc3ncnc(Nc4ccc(F)c(Cl)c4)c3n2)CC1 | 128 to 129
30 | COC(=O)CCCCCCC1=CC(O)CC1=O (stereo not drawn) | 50 to 51
31 | O=c1oc(CCc2ccccc2)cc(O)c1SCc1ccccc1 | 164 to 166
32 | N#Cc1cccc(-c2ccco2)n1 | 90.2 to 90.3
33 | Cc1cc(=O)c(OCc2ccccc2)c(C=O)o1 | 78 to 81
34 | CC(=O)c1c(C)c2ccccc2n1N | 94 to 98
35 | Cc1nc2n(c(=O)c1CCCl)CCCN2Cc1ccccc1 | 114
36 | N#CCC(=O)NC1CCCCC1NC(=O)CC#N (stereo not drawn) | 202 to 204
37 | CC(C)(C)OC(=O)NCCc1ccc(OCCC2Oc3cc([N+](=O)[O-])ccc3N(Cc3cccc(Cl)c3)C2=O)cc1 (stereo not drawn) | 82 to 85
38 | COC1=C(C)C(=O)c2ccccc2C1=O | 93 to 94
39 | NS(=O)(=O)c1cc2c(c(Cl)c1Cl)OC(CCl)C2 (stereo not drawn) | 195 to 196
40 | O=C(O)C1(CC#CBr)CCCCC1 | 98
41 | COc1ccc2ccccc2c1CCN | > 180
42 | CC1(C)CC(=C(c2ccc(O)cc2)c2ccc(-c3ccc(CO)cc3)cc2)CC(C)(C)C1 | 222 to 223
43 | CC(C)(NC=O)c1ccc(I)cc1 | 121 to 125
44 | CCCCOc1cc(C(=O)O)cc(N)c1C(=O)c1ccc(Cl)cc1 | 286 to 288
45 | CC(=O)NC1=NN(c2ccc(Cl)cc2)CC1 | 171 to 173
46 | CCOCCn1c(NC2CCN(CC(=O)O)CC2)nc2cccnc21 | 227
47 | Cc1cc(S)c(C)c(C)c1O | 86
48 | O=C(NCC1CC1)c1c(NC(=O)c2cc(C(F)(F)F)nn2-c2ncccc2Cl)c(Cl)cc2cn[nH]c12 | > 250

Row | SMILES | melting point [°C]
49 | CC1CCN(c2ccc([N+](=O)[O-])cc2C(=O)c2ccccc2Cl)CC1 | 84
50 | CCC1c2cccn2-c2ccc(Cl)cc2N1C(=O)c1ccc(O)cc1O (stereo not drawn) | 198 to 201
51 | COc1cc(CC2NC(=O)NC2=O)cc(OC)c1OC (stereo not drawn) | 180 to 181
52 | Cc1ccc(-n2cccc2C=O)c(Cl)c1 | 111 to 112
53 | O=C(O)c1cn(C2CC2)c2c(F)c(N3CCCC(n4cncn4)C3)c(F)cc2c1=O (stereo not drawn) | 217
54 | CCc1cc(-c2ccc(F)cc2)c(O)cc1OCCCOc1cccc(Oc2ccccc2C(=O)O)c1CC(C)C | 48 to 49
55 | O=C1C2CN(Cc3ccccc3)CC2C(=O)N1Cc1ccccc1 (stereo not drawn) | 100
56 | CCOC(=O)Nc1csc2cc(OC)ccc12 | 88
57 | Cn1c(=O)c(-c2c(Cl)cccc2Cl)cc2cnc(Nc3ccc(CCCC(=O)O)cc3)nc21 | 169 to 171
58 | Cc1ccc2c(Cc3nc4c(F)c(F)cc(F)c4s3)cn(CC(=O)O)c2c1 | 211 to 213
59 | COc1cccc(-c2ccc(N3CCCN(c4ccc(-c5cccc(OC)c5)cn4)CC3)nc2)c1 | 146 to 149
60 | C=CCOC(=O)c1c(C)c(OC)cc(O[Si](C)(C)C(C)(C)C(C)C)c1C=O | 81 to 82
61 | CCCS(=O)(=O)NC(=O)C[C@H]1O[C@H](c2cccc(OC)c2OC)c2cc(Cl)ccc2N(CC(C)(C)CO)C1=O | 135 to 137
62 | CCCCCCCC[C@H]1CC[C@H](C(=O)O)CC1 | 36 to 37
63 | N#CC1=C(C2CCCCC2)Nc2n[nH]cc2C1c1cccc2nonc12 (stereo not drawn) | 210
64 | Cc1c(C)c(N2CCN(c3nc(-c4ccccc4)ns3)CC2)c(C)c2c1OC(C)(C)C2 | 204 to 205
65 | COc1cc(Nc2ncc3c(n2)C(C)(c2ccccc2)CCC3)ccc1-n1cnc(C)c1 (stereo not drawn) | 207 to 209
66 | CCN(CC)C(=O)n1ccc(S(=O)(=O)c2ccc(Br)cc2C(F)(F)F)n1 | 62 to 65
67 | CN(C)C(=O)C1CC2CCC1c1[nH]c3ccccc3c12 (stereo not drawn) | 231 to 232
68 | CCOC(=O)c1ccncn1 | 36.8
69 | COc1ccc(OC)c(CN2CCc3cc(O)c(OC)cc3C2)c1 | 104 to 105
70 | Cc1cc(Cn2nnn(-c3cccc(C(F)(F)F)c3)c2=O)ccc1N | 89 to 94
71 | Cn1c(=O)nc(-c2ccccc2)c2ccsc21 | 256 to 258
72 | CCOc1cc(-c2nnc3c4ccccc4c(OCc4nc[nH]n4)nn23)no1 | 240 to 243

The remaining lines, values ahead:

Row | melting point [°C] | SMILES
73 | 137 | COc1cc(OCC(=O)O)c(C)cc1SCc1ccc(-c2cccc(OC(F)(F)F)c2)cc1
74 | 155 to 156 | c1ccc(COc2cncc(N3CCNCC3)n2)cc1
75 | > 250 | Cc1ccc(-c2cc(F)c3c(c2)CC(CN)O3)cc1 (stereo not drawn)
76 | 274 to 275 | Fc1ccc(Nc2ncnc3[nH]ccc23)cc1Cl
77 | 203 | COc1ccccc1-c1nc2cc(NC(=O)OC(C)(C)C)ccn2n1
78 | 105 to 107 | CCCCCCCCCCCCCCCCCCNS(N)(=O)=O
79 | 155 to 156 | c1ccc(CNCC2CCn3c(nc4ccccc43)S2)cc1 (stereo not drawn)
80 | 293 | COc1ccc2[nH]c3c(c2c1[N+](=O)[O-])CCC3=O
81 | 265 to 267 | CC1(C)CCc2c(-c3ccoc3)nc3sc4c(NCCc5c[nH]cn5)ncnc4c3c2C1
82 | 101 to 104 | O=Cc1ccc(Oc2ccc([N+](=O)[O-])cc2)cc1
83 | 271 | CC(C)(CO)NS(=O)(=O)c1cccc(NC(=O)c2cnn3c(C(F)(F)F)cc(-c4ccc(Cl)cc4)nc23)c1
84 | 145 to 147 | CCN(C(=O)N1CCN(c2cc(C)cc(C)c2)CC1)c1nc2ccccc2nc1OC
85 | 119 to 120 | O=C1CCc2cc(Cl)cc(Cl)c21
86 | 95.5 to 98 | O=C(CS(=O)(=O)Cc1cccs1)C12CC3CC(CC(C3)C1)C2
87 | 51 to 53 | COc1ccc(OCC2SCCN2C(=O)CCl)cc1 (stereo not drawn)
88 | 270 | Nc1cnc2c(F)c(Cl)c(F)cc2c1

Row | melting point [°C] | SMILES
89 | 70 to 75 | COc1c(C)cccc1C(=O)O
90 | 221 to 222 | O=C(Cc1c(F)cccc1C(=O)O)Nc1cccc(/C=C/c2nc(C3CCC3)cs2)c1
91 | 146 to 148 | Cc1ccc(-n2nc(N3CCN(C(N)=O)CC3)c3ccccc32)cc1
92 | 75 | CCCC1CCc2c(c(F)c(F)c3oc(C)cc23)O1 (stereo not drawn)
93 | 112 to 114 | CN(C)CCCc1ccc(OCCCNc2nc(N)nn2C)cc1
94 | 112 to 114 | O=CNc1cc(F)ccc1F
95 | 93 to 94 | c1ccc(-c2nc(COc3ccc(CCCCn4ccnc4)cc3)cs2)cc1
96 | 122 to 123 | COc1ccc(CS[C@H]2C[C@@H](C(N)=O)N(CCF)C2)cc1
97 | 118 to 121 | CCCN(CCC)S(=O)(=O)c1cc(C2=CCC(=O)O2)ccc1Cl
98 | 254 to 259 | O=C(c1cnccn1)N1CCN(Cc2ccc3c(c2)-c2[nH]nc(-c4ccsc4)c2C3)CC1
99 | 200 | CC(=O)Nc1ccc(O[C@@H]2CNC[C@H]2O)cc1 (relative stereo)
100 | 113 to 114 | COCCCn1c2cc(C)ccc2n2c(C)nnc12
101 | 68 | COc1cc(C=O)cc(OC)c1O[Si](C)(C)C(C)(C)C
102 | 251 to 252 | O=C(O)[C@H]1C[C@H](NC(=O)N2CCc3ccccc32)c2c(Cl)cc(Cl)cc2N1 (relative stereo)
103 | 135 to 136 | CC(C)(C)OC(=O)N1CCN(CCOC(N)=O)CC1

— a melting point compilation (Tetko et al.; mined from patent text by program, amines drawn as free bases though some values may be those of a salt)
